One block for each molecule: values may come before it.
Legend:
[1] = system: P. falciparum clone TM90C2A; details: by EC50 or, for ART, RSA, well-characterized susceptibilities; cited from earlier work
P. falciparum clone GMC1 = details: by EC50 or, for ART, RSA, well-characterized susceptibilities; cited from earlier work
P. falciparum clone HB3 = details: by EC50 or, for ART, RSA, well-characterized susceptibilities; cited from earlier work
P. falciparum clone V1/S = details: by EC50 or, for ART, RSA, well-characterized susceptibilities; cited from earlier work
P. falciparum clone Dd2 = details: by EC50 or, for ART, RSA, well-characterized susceptibilities; cited from earlier work
P. falciparum clone NF54 = details: by EC50 or, for ART, RSA, well-characterized susceptibilities; cited from earlier work
[2] = system: P. falciparum clone IPC 5202; design: method as in BEI, Didier Menard; details: by EC50 or, for ART, RSA, well-characterized susceptibilities, ref BEI, Didier Menard; cited from earlier work
[3] = system: P. falciparum clone IPC 3445; design: method as in BEI, Didier Menard; details: by EC50 or, for ART, RSA, well-characterized susceptibilities, ref BEI, Didier Menard; cited from earlier work
P. falciparum clone D6 = details: by EC50 or, for ART, RSA, well-characterized susceptibilities; cited from earlier work
P. falciparum clone 7G8 = details: by EC50 or, for ART, RSA, well-characterized susceptibilities; cited from earlier work
P. falciparum clone 3D7 = details: by EC50 or, for ART, RSA, well-characterized susceptibilities; cited from earlier work
[4] = system: P. falciparum clone D10 w/ yDHODH; details: by EC50 or, for ART, RSA, well-characterized susceptibilities; cited from earlier work
[5] = system: P. falciparum 3D7 asexual blood stages; assay: Standard 72-hour inhibitor-response (parasite proliferation) assay; assay type: cell-based; details: Plasmodium falciparum; 3D7, 72-hour assay; read-out: 3D7 EC50

Compound: CC1(C)N=C(N)N=C(N)N1c1ccc(Cl)cc1 [CG, cycloguanil]
- Clone susceptibility to antimalarial (R/S) [1]: R
- Clone susceptibility to antimalarial (R/S) (P. falciparum clone GMC1): R
- Clone susceptibility to antimalarial (R/S) (P. falciparum clone HB3): S
- Clone susceptibility to antimalarial (R/S) (P. falciparum clone V1/S): R
- Clone susceptibility to antimalarial (R/S) (P. falciparum clone Dd2): R
- Clone susceptibility to antimalarial (R/S) (P. falciparum clone NF54): S
- Clone susceptibility to antimalarial (R/S) [2]: R
- Clone susceptibility to antimalarial (R/S) [3]: R
- Clone susceptibility to antimalarial (R/S) (P. falciparum clone D6): S
- Clone susceptibility to antimalarial (R/S) (P. falciparum clone 7G8): R
- Clone susceptibility to antimalarial (R/S) (P. falciparum clone 3D7): S

Compound: Cc1cc(Nc2ccc3ccccc3c2)n2ncnc2n1 [DSM1]
- Clone susceptibility to antimalarial (R/S) [1]: S
- Clone susceptibility to antimalarial (R/S) (P. falciparum clone GMC1): S
- Clone susceptibility to antimalarial (R/S) (P. falciparum clone HB3): S
- Clone susceptibility to antimalarial (R/S) [4]: R
- Clone susceptibility to antimalarial (R/S) (P. falciparum clone V1/S): S
- Clone susceptibility to antimalarial (R/S) (P. falciparum clone Dd2): S
- Clone susceptibility to antimalarial (R/S) (P. falciparum clone NF54): S
- Clone susceptibility to antimalarial (R/S) [2]: S
- Clone susceptibility to antimalarial (R/S) [3]: S
- Clone susceptibility to antimalarial (R/S) (P. falciparum clone D6): S
- Clone susceptibility to antimalarial (R/S) (P. falciparum clone 7G8): S
- Clone susceptibility to antimalarial (R/S) (P. falciparum clone 3D7): S

Compound: OC(c1cc(C(F)(F)F)nc2c(C(F)(F)F)cccc12)C1CCCCN1 (centres unmarked) [MQ, mefloquine]
- Clone susceptibility to antimalarial (R/S) [1]: R
- Clone susceptibility to antimalarial (R/S) (P. falciparum clone GMC1): S
- Clone susceptibility to antimalarial (R/S) (P. falciparum clone HB3): S
- Clone susceptibility to antimalarial (R/S) [4]: S
- Clone susceptibility to antimalarial (R/S) (P. falciparum clone V1/S): S
- Clone susceptibility to antimalarial (R/S) (P. falciparum clone Dd2): R
- Clone susceptibility to antimalarial (R/S) (P. falciparum clone NF54): S
- Clone susceptibility to antimalarial (R/S) [2]: R
- Clone susceptibility to antimalarial (R/S) [3]: R
- Clone susceptibility to antimalarial (R/S) (P. falciparum clone D6): S
- Clone susceptibility to antimalarial (R/S) (P. falciparum clone 7G8): S
- Clone susceptibility to antimalarial (R/S) (P. falciparum clone 3D7): S

Compound: C=C[C@H]1C[N@@]2CC[C@H]1C[C@H]2[C@H](O)c1ccnc2ccc(OC)cc12 [QN, quinine]
- Clone susceptibility to antimalarial (R/S) (P. falciparum clone HB3): S
- Clone susceptibility to antimalarial (R/S) (P. falciparum clone V1/S): R
- Clone susceptibility to antimalarial (R/S) (P. falciparum clone Dd2): R
- Clone susceptibility to antimalarial (R/S) (P. falciparum clone NF54): S
- Clone susceptibility to antimalarial (R/S) [2]: R
- Clone susceptibility to antimalarial (R/S) [3]: R
- Clone susceptibility to antimalarial (R/S) (P. falciparum clone D6): S
- Clone susceptibility to antimalarial (R/S) (P. falciparum clone 7G8): R
- Clone susceptibility to antimalarial (R/S) (P. falciparum clone 3D7): S

Compound: COc1ncnc(NS(=O)(=O)c2ccc(N)cc2)c1OC [SDX, sulfadoxine]
- Clone susceptibility to antimalarial (R/S) (P. falciparum clone GMC1): R
- Clone susceptibility to antimalarial (R/S) (P. falciparum clone HB3): S
- Clone susceptibility to antimalarial (R/S) (P. falciparum clone Dd2): R
- Clone susceptibility to antimalarial (R/S) (P. falciparum clone NF54): R
- Clone susceptibility to antimalarial (R/S) [2]: R
- Clone susceptibility to antimalarial (R/S) [3]: R
- Clone susceptibility to antimalarial (R/S) (P. falciparum clone D6): S
- Clone susceptibility to antimalarial (R/S) (P. falciparum clone 3D7): R

Compound: C[C@@H]1CC[C@H]2[C@@H](C)C(=O)O[C@@H]3O[C@@]4(C)CC[C@@H]1[C@]32OO4 [artemisinin]
- Clone susceptibility to antimalarial (R/S) [1]: S
- Clone susceptibility to antimalarial (R/S) (P. falciparum clone GMC1): S
- Clone susceptibility to antimalarial (R/S) (P. falciparum clone HB3): S
- Clone susceptibility to antimalarial (R/S) [4]: S
- Clone susceptibility to antimalarial (R/S) (P. falciparum clone V1/S): S
- EC50 [5]: 6 nM
- Clone susceptibility to antimalarial (R/S) (P. falciparum clone Dd2): S
- Clone susceptibility to antimalarial (R/S) (P. falciparum clone NF54): S
- Clone susceptibility to antimalarial (R/S) [2]: R
- Clone susceptibility to antimalarial (R/S) [3]: R
- Clone susceptibility to antimalarial (R/S) (P. falciparum clone D6): S
- Clone susceptibility to antimalarial (R/S) (P. falciparum clone 7G8): S
- Clone susceptibility to antimalarial (R/S) (P. falciparum clone 3D7): S

- EC50 [5]: 19 nM
Compound: CCc1nc(N)nc(N)c1-c1ccc(Cl)cc1 [pyrimethamine]
- Clone susceptibility to antimalarial (R/S) [1]: R
- Clone susceptibility to antimalarial (R/S) (P. falciparum clone GMC1): R
- Clone susceptibility to antimalarial (R/S) (P. falciparum clone HB3): R
- Clone susceptibility to antimalarial (R/S) (P. falciparum clone V1/S): R
- Clone susceptibility to antimalarial (R/S) (P. falciparum clone Dd2): R
- Clone susceptibility to antimalarial (R/S) (P. falciparum clone NF54): S
- Clone susceptibility to antimalarial (R/S) [2]: R
- Clone susceptibility to antimalarial (R/S) [3]: R
- Clone susceptibility to antimalarial (R/S) (P. falciparum clone D6): S
- Clone susceptibility to antimalarial (R/S) (P. falciparum clone 7G8): R
- Clone susceptibility to antimalarial (R/S) (P. falciparum clone 3D7): S

— PMC10848769, “Tartrolon E, a secondary metabolite of a marine symbiotic bacterium, is a potent inhibitor of asexual and sexual Plasmodium falciparum” (Antimicrobial Agents and Chemotherapy, 2024)
